From US4500544A, “Ascochlorin derivatives, and pharmaceutical composition containing the same” (Chugai Seiyaku Kabushiki Kaisha, priority 1981, dated 1985)

Key:
[1] = system: streptozotocin diabetic ddY mice; experiment: streptozotocin-diabetic mice, plasma glucose and lipid (Example 26); assay type: in vivo, ddY male mice
Experimental: Five-week-old ddY male mice […] were injected intraperitoneally 150 mg/kg of streptozotocin, and after 24 hours onward, they were given for one week a diet (CE-2 from Nippon Crea Co., Ltd.) containing 0.05% of 4-O-nicotinoyl ascochlorin. A control group was given only CE-2. On the 7th day, the animals were sacrificed and the levels of glucose and lipid in their plasma were measured.

[2] = system: Hereditary obese diabetic mice C 57BL/Ksj (db^+ /db^+); experiment: hereditary obese diabetic mice, diet with 0.05% compound, intake and urine (Example 24); assay type: in vivo, mouse
Experimental: Hereditary obese diabetic mice C 57BL/Ksj (db^+ /db^+), 12 weeks old, were fed commercial pellet diet (CE-2 from Nippon Crea Co., Ltd.) for a week and they were treated with CE-2 pellet containing 0.05% of 4-O-nicotinoylascochlorin for a week. The daily amounts of the diet intake, drinking water, urine volume and urine glucose excreted were measured before and during the treatment.

[3] = system: hepatic lipogenesis in streptozotocin-diabetic mice; experiment: hepatic lipogenesis in streptozotocin-diabetic mice; assay type: in vivo; conditions: oral, a week; untreated diabetic controls one half of normal
Description: Potentiation of insulin action by the compounds of the present invention is corroborated by restoration of hepatic lipogenesis in streptozotocin-diabetic mice. Streptozotocin diabetic mice greatly deteriolate hepatic lipogenesis due to insulin deficiency.

[4] = serum lipid and glucose in normal mice fed the compounds (Example 25); assay type: in vivo, ddY male mice
Experimental: Five-week-old ddY male mice were given for one week a diet (CE-2 from Nippon Crea Co., Ltd.) containing 0.05% of the compounds of the present invention indicated in Table 7. On the 7th day, the mice were sacrificed and the levels of lipid and glucose in their serum were measured.

[5] = system: Hereditary obese diabetic mice C57BL/Ksj (db^+ /db^+); experiment: hereditary obese diabetic mice, plasma glucose and lipid (Example 27); assay type: in vivo, mouse
Experimental: Hereditary obese diabetic mice C57BL/Ksj (db^+ /db^+) were given for one week a diet (CE-2 from Nippon Crea Co., Ltd.) containing 0.05% of 4-O-nicotinoyl ascochlorin. A control group of the same age was given only CE-2. One week later, the animals were sacrificed and the levels of plasma glucose and lipid were measured.

[6] = systemic or oral administration; cited from earlier work
[7] = background; cited from earlier work
[8] = system: circulatory system of mammals; conditions: background; cited from earlier work
[9] = background; cited from earlier work; remark: listed apart in the source
[10] = plasma glucose and cholesterol in normal mice fed the compounds (Example 19); assay type: in vivo, ddY male mice; conditions: 0.1% in diet, one week, n=10
Experimental: Five-week-old ddY male mice (n=10) were given for one week a diet (CE-2 from Nippon Crea Co., Ltd.) containing 0.1% of the sample compounds of the present invention indicated in Table 1. Blood was then withdrawn from the heart and the glucose and cholesterol levels in plasma were measured.

[11] = system: adipocytes of hereditary obese diabetic mouse, strain C 57BL/KsJ (db^+ /db^+); experiment: adipocytes from orally treated hereditary obese diabetic mice; assay type: in vivo; conditions: oral, 1 week
Description: The hereditary obese diabetic mouse, strain C 57BL/KsJ (db^+ /db^+), is an excellent model of human type II diabetes mellitus.

[12] = system: adipocytes of streptozotocin-diabetic rats; experiment: adipocytes from orally treated streptozotocin-diabetic rats; assay type: in vivo; conditions: oral once daily for 2 weeks
Experimental: The mechanism of action of the compounds of the present invention was evaluated using adipocytes derived from diabetic animals which orally received the compounds for a given period.

L-1210 leukemia = experiment: prevention of L-1210 leukemia by pretreatment one week before transplantation (Example 23); assay type: in vivo, BDF1 female mice; conditions: 2 mg i.p. one week before 10^2 cells
Experimental: Four-week-old BDF1 female mice were injected intraperitoneally with suspensions of 2 mg of 4-O-hydroxycarbonylmethyl ester of ascochlorin in 1% tragacanth gum. A control group was injected only with 1% tragacanth gum. One week later, 10^2 cells of L-1210 leukemia were transplanted in the mice.

Ehrlich ascites tumor = experiment: life span of mice with Ehrlich ascites tumor (Example 22); assay type: in vivo, ddY male mice; conditions: 2 mg i.p. once a day for 7 days
Experimental: 10^6 Cells of Ehrlich ascites tumor were transplanted in five-week-old ddY male mice and from the 24th hour onward, they were injected intraperitoneally the compounds indicated in Table 4 of the present invention once a day for 7 consecutive days. Each injection contained 2 mg of the test compounds. The efficacy of the compounds is indicated in Table 4 in terms of their life span.

[13] = system: Hereditary obese diabetic mice C 57BL/Ksj (db^+ /db^+); experiment: hereditary obese diabetic mice, diet with 0.1% compound (Example 20); assay type: in vivo, mouse
Experimental: The amounts of the diet taken drinking water, urine volume and urine glucose excreted were measured daily. The results are indicated in Table 2 in terms of mean value±standard error.

[14] = vs one week prior to administration

CC(/C=C/C1(C)C(C)CCC(=O)C1C)=C\Cc1c(O)c(C=O)c(C)c(Cl)c1OC(=O)c1cccnc1 (centres unmarked) [Example 11, 4-O-nicotinoyl ascochlorin]
blood glucose and plasma triglyceride (in words) ([1]; 0.05% in diet, one week): could inhibit significantly the increase in the levels of blood glucose and triglyceride in plasma | free aliphatic acid in plasma ([1]; 0.05% in diet, one week, control 22.4 ± 1.4): 20.5 ± 1.2 mg/dL | plasma glucose ([1]; 0.05% in diet, one week, control 453.6 ± 38.0): 351.3 ± 23.0 mg/dL | free aliphatic acid in plasma, change ([1]; vs control): -8% | plasma glucose, change ([1]; vs control): -23% | polydipsia, polyuria and urine glucose excretion (in words) ([2]; 0.05% in diet, one week): improved polydipsis and polyurea and inhibited excretion of urine gluclose | urine volume ([2]; 0.05% in diet, one week, n=5, control period 8.60 ± 0.35): 5.20 ± 0.36 ml/mouse/day | drinking water ([2]; 0.05% in diet, one week, n=5, control period 14.55 ± 0.33): 11.16 ± 0.52 ml/mouse/day | urine glucose concentration ([2]; 0.05% in diet, one week, n=5, control period 130.6 ± 5.7): 106.3 ± 2.9 mg/mL | urine glucose ([2]; 0.05% in diet, one week, n=5, control period 1129 ± 96): 554 ± 43 mg/mouse/day | diet intake ([2]; 0.05% in diet, treatment period one week, n=5, control period 4.85 ± 0.06, NS): 4.26 ± 0.39 g/mouse/day | drinking water, change ([2]; vs control period): -23.30% | urine glucose concentration, change ([2]; vs control period): -18.6% | urine glucose, change ([2]; vs control period): -50.9% | urine volume, change ([2]; vs control period): -39.5% | incorporation of acetate into hepatic total fatty acid and triglyceride [3]: restored to normal control levels | lipid level in serum (in words) ([4]; 0.05% in diet, one week): could also reduce the lipid level in serum | free fatty acid in serum ([4]; 0.05% in diet, one week, n=8, control 25.3 ± 1.62): 21.2 ± 0.62 mg/dL | neutral fat in serum ([4]; 0.05% in diet, one week, n=8, control 134.7 ± 8.6): 102.0 ± 10.5 mg/dL | total cholesterol in serum ([4]; 0.05% in diet, one week, n=8, control 135.9 ± 4.8): 106.7 ± 5.5 mg/dL | serum glucose ([4]; 0.05% in diet, one week, n=8, control 293.0 ± 13.3): 228.0 ± 16.8 mg/dL | free fatty acid in serum, change ([4]; vs control): -16.3% | neutral fat in serum, change ([4]; vs control): -24.3% | serum glucose, change ([4]; vs control): -22.2% | total cholesterol in serum, change ([4]; vs control): -21.5% | plasma lipid and glucose levels (in words) ([5]; 0.05% in diet, one week): could reduce significantly the high plasma lipid and glucose levels | plasma free fatty acid ([5]; 0.05% in diet, one week, n=7, control 27.7 ± 1.8): 26.1 ± 1.4 mg/dL | plasma triglyceride ([5]; 0.05% in diet, one week, n=7, control 170.7 ± 16.3): 115.5 ± 14.9 mg/dL | immunoreactive insulin in plasma ([5]; 0.05% in diet, one week, n=7, control 236.6 ± 91.0): 257.3 ± 91.3 μU/ml | plasma glucose ([5]; 0.05% in diet, one week, n=7, control 453.6 ± 38.0): 351.3 ± 23.0 mg/dL | plasma glucose, change ([5]; vs control): -23% | plasma triglyceride, change ([5]; vs control): -32.3%

COc1c(Cl)c(C)c(C=O)c(O)c1C/C=C(C)/C=C/C1(C)C(C)CCC(=O)C1C (centres unmarked)
level in blood [6]: not easily increased even if it is administered systemically or orally | water solubility [7]: low in water solubility

CC(/C=C/[C@@]1(C)[C@H](C)CCC(=O)[C@@H]1C)=C\Cc1c(O)c(Cl)c(C)c(C=O)c1O [Ascochlorin]
toxicity to the circulatory system [8]: highly toxic to the circulatory system of mammals | anti-viral and anti-tumor effects [9]: high anti-viral and anti-tumor effects

CC(/C=C/C1(C)C(C)CCC(=O)C1C)=C\Cc1c(O)c(C=O)c(C)c(Cl)c1OCC(=O)O (centres unmarked) [Example 4, 4-O-carboxymethyl ascochlorin]
total cholesterol in plasma ([10]; control 135.9 ± 4.8): 107.9 ± 4.5 mg/dL | plasma glucose ([10]; control 271.6 ± 0.4): 217.6 ± 12.2 mg/dL | 2-deoxyglucose uptake, and conversion of glucose to carbon dioxide and lipid [11]: increased | increment in ^125 I-insulin binding to adipocytes ([11]; above age-matched untreated diabetic controls): 1.5-3.0 fold | 2-deoxyglucose uptake, and conversion of glucose to carbon dioxide and lipids in adipocytes [12]: greatly increased | ^125 I-insulin binding to adipocytes ([12]; vs normal and diabetic control): increased ^125 I-insulin binding to adipocytes above normal and diabetic control levels | incorporation of acetate into hepatic total fatty acid and triglyceride [3]: restored to normal control levels | Survived 50 days or more (L-1210 leukemia; control 0, P < 0.01): 7 | Died (L-1210 leukemia; control 20 died): 13 | Days survived (Ehrlich ascites tumor; n=8, control 15.5 ± 2.12): > 25.3 ± 4.65 days | T/0 (%) (Ehrlich ascites tumor; control 100): 163% | urine volume ([13]; 0.1% in diet, one week administration, prior 5.95 ± 0.20, n=10): 2.07 ± 0.23 ml/mouse/day | diet intake ([13]; 0.1% in diet, one week administration, prior 6.35 ± 0.13, n=10): 6.37 ± 0.28 g/mouse/day | drinking water ([13]; 0.1% in diet, one week administration, prior 14.7 ± 0.3, n=10): 10.4 ± 0.3 ml/mouse/day | urine glucose concentration ([13]; 0.1% in diet, one week administration, prior 97.4 ± 3.4, n=10): 52.9 ± 5.52 mg/mL | urine glucose ([13]; 0.1% in diet, one week administration, prior 579.5 ± 21.1, n=10): 106.8 ± 19.5 mg/mouse/day | drinking water, change [13, 14]: -29.3% | urine glucose concentration, change [13, 14]: -45.7% | urine glucose, change [13, 14]: -81.5% | urine volume, change [13, 14]: -65.2%
